Patent publication US6194169A, “Enhanced expression of human platelet-derived growth factor in Pichia pastoris” (The University of Kentucky Research Foundation, priority 1998, dated 2001)

What was measured:
[1] = system: human glioblastoma (U87) cells; assay: Tumor growth of stably transfected U87 cells in athymic nude mice; format: in vivo; details: 10^7 transfected U87 cells s.c. in athymic nude mice
Description: Transfections and stable expression in the human glioblastoma cell line U87 were performed using a liposomal reagent (Lipofectin™) (Gibco/BRL; Gaithersburg, Md.), as described. Cells were cultured in 162 cm^2 flasks in complete DMEM. On the day of injection, cells were removed by trypsinization, rinsed twice with Hanks balanced salt solution (HBSS, without phenol red; Gibco/BRL), and resuspended in 300 μL HBSS. Cells (10^7) from exponentially growing cultures of stable U87 transfectants were injected subcutaneously between the scapulae of 9-week-old athymic nude mice (Harlan Sprague-Dawley, nu/nu) using a 1 cc tuberculin syringe equipped with a 23-gauge needle. Two-dimensional measurements of tumors were obtained with vernier calipers.

[2] = PDGF-BB expressed in Saccharomyces cerevisiae, Craig et al. (1992); cited from earlier work
[3] = Heparin-agarose in vitro batch binding assay; details: 200 mM NaCl, 40 mM Hepes pH 7.4; 3 μg protein; bound fraction by ELISA
Description: Mixtures containing 300 μL of a 50:50 slurry of heparin-agarose in 200 mM NaCl, 40 mM Hepes, pH 7.4 were incubated with 3 μg of PDGF-BB proteins for 15 min at 23° C. Supernatants were obtained by microcentrifugation and collected with a 23 G needle. Pellets were washed with 300 μL of buffer, which was combined with the first supernatant ("unbound" PDGF). Pellets were then washed twice with 150 μL of buffer containing 1 M NaCl, and supernatants were pooled (high salt wash fraction, or "bound" PDGF). PDGF-BB content of bound and unbound fractions were determined by ELISA.

PDGF β-receptor [4] = assay: Radioreceptor assay (RRA), competition with [125I]PDGF-BB in R52 rat mesangial cells; format: binding; details: R52 cells (β isotype); [125I]PDGF-BB radioligand; Pichia-expressed protein; ALLFIT fit
Description: (§1) Radioreceptor assays were conducted in A204 and rat mesangial cells (RMC, R52 line) as described previously using 20,000 cpm of [^125 I]PDGF-BB (1200 Ci/mmol; Amersham, Buckinghamshire, England) as radioligand and unlabeled recombinant PDGF-BB proteins as competitor. Mitogenic activities of recombinant PDGF-BB proteins were determined by measuring [^3 H]thymidine incorporation into cells as described.

PDGF α-receptor [5] = assay: Radioreceptor assay (RRA), competition with [125I]PDGF-BB in A204 cells; format: binding; details: A204 cells (α isotype only); [125I]PDGF-BB radioligand; Pichia-expressed protein; ALLFIT fit
Description: as §1

NR6 cells = assay: Mitogenesis, [3H]thymidine incorporation in NR6 cells; format: cell-based; details: NR6 cells (primarily α-receptors), ALLFIT fit
Description: as §1

PDGF β-receptor [6] = assay: In vitro PDGF receptor autophosphorylation in R52 cells; format: cell-based, rat; details: 170 kDa PDGF receptor species
Description: In vitro assays of PDGF receptor autophosphorylation were conducted essentially as described. A204 and R52 cells (obtained from the American Type Culture Collection (ATCC) were grown to near confluence on 100-mm plastic dishes and maintained in low mitogenicity medium for 24 h. Cells were pre-chilled at 4° C. for 60 min and then incubated with PDGF-BB preparations for 10 min at 4° C. Cell lysates were incubated with either anti-PDGFRα or anti-PDGFRβ IgG (Santa Cruz Biotechnologies) for 60 min at 4° C., centrifuged for 10 min and incubated in fresh tubes containing protein A-agarose (Sigma) for 60 min at 4° C. Kinase assays were performed in 25 μL kinase buffer (20 mM Tris HCl, 1 mM DTT, 10 mM MnCl2, pH 7.5) and 5 μCi [γ-^32 P] ATP (3000 Ci/mmol) for 10 min at 30° C. Immunoprecipitates were analyzed by SDS-PAGE (6% polyacrylamide).

PDGF α-receptor [7] = assay: In vitro PDGF receptor autophosphorylation in A204 cells; format: cell-based; details: 170 kDa PDGF receptor species
Description: In vitro assays of PDGF receptor autophosphorylation were conducted essentially as described. […] ATP (3000 Ci/mmol) for 10 min at 30° C. Immunoprecipitates were analyzed by SDS-PAGE (6% polyacrylamide).

Substance | effect of overexpression on U87 tumor growth in vivo vs Neo controls (in words) [1] | Structure (%) Beta [2] [%] | Structure (%) Helix [2] [%] | Structure (%) Random [2] [%] | heparin-binding, protein in the bound fraction [3] [%] | RRA: IC50 β (PDGF β-receptor [4]) [ng/mL] | RRA: IC50 α (PDGF α-receptor [5]) [ng/mL] | Mitogenesis ED50 (NR6 cells) [ng/mL] | induction of β-receptor autophosphorylation (in words) (PDGF β-receptor [6]) | induction of α-receptor autophosphorylation (in words) (PDGF α-receptor [7])
A-WT-RKK: wild-type PDGF A-chain overexpressed from cDNA in stably transfected U87 cells | not significantly different |  |  |  |  |  |  |  |  | 
PDGF-BB: wild-type human PDGF-BB expressed in Saccharomyces cerevisiae, CD data as reported by Craig et al. (1992) |  | 51.0 | 4.0 | 45.0 |  |  |  |  |  | 
WT-RKK: human PDGF B-chain (PDGF-BB homodimer) with wild-type loop III residues Arg Lys Lys (RKK) | not significantly different |  |  |  | ~100 | 4.0 | 9.2 | 52 | dose-dependent autophosphorylation | dose-dependent autophosphorylation
